27 compounds from US7009052B2, “Sulfonamide derivatives” (Warner Lambert Company LLC, priority 2003, dated 2006) can be followed below.

The target of this assay is T1, androgen receptor (Homo sapiens, UniProt P10275).
T1 sequence (P10275 1-920 Q868H): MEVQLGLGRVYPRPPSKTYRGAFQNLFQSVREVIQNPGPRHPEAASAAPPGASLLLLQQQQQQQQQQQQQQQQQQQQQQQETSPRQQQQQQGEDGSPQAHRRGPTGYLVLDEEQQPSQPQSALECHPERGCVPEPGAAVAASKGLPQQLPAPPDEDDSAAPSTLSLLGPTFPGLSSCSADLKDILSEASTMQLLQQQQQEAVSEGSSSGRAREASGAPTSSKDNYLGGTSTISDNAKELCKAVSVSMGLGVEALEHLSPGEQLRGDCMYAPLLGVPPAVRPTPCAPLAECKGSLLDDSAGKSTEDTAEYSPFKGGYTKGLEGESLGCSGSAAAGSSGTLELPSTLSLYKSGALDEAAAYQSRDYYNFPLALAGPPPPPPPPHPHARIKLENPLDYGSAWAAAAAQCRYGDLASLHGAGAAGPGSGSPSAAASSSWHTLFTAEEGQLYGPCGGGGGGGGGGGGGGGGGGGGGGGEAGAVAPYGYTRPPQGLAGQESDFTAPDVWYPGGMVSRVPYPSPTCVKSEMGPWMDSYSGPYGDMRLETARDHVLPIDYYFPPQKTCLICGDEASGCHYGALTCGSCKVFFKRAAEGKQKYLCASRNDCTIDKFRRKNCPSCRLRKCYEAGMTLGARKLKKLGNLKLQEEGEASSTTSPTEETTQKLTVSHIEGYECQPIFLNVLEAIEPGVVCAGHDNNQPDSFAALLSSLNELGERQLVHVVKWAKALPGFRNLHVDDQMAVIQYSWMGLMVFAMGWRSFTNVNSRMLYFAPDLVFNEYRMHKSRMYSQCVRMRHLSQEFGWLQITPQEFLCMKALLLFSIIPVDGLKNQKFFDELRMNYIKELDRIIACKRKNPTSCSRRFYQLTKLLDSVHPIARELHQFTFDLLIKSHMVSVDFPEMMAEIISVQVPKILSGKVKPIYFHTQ
In words: AR Antagonist Cell Assay (MMTV-luciferase reporter, DHT-induced). It is filed as cell-based. The settings on record: MDA-MB453-MMTV clone 54-19 cells, 100 pM DHT, 17 hr. Put shortly: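 Stably transfected MDA-MB453 cells carrying an ARE-containing MMTV promoter–firefly luciferase reporter, pretreated 30 min with compound at 10 uM or 1 uM in 1% charcoal-treated serum medium. Then stimulated with 100 pM DHT for 17 hr at 37° C. and luminescence read; expressed as % inhibition of DHT-induced signal.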

The structures appear in SMILES notation. pIC50: −log10 of the molar value.

In turn, `C#Cc1ccc(NS(=O)(=O)c2ccc3c(c2)c(C(F)(F)F)cc(=O)n3C)cc1` [Example 15, 1-Methyl-2-oxo-4-trifluoromethyl-1,2-dihydroquinoline-6-sulfonicacid (4-ethynylphenyl)amide] had a pIC50 of 5.93.
The value for `Cc1ccccc1CNS(=O)(=O)c1ccc2c(c1)c(C(F)(F)F)cc(=O)n2C` [Example 52, 1-Methyl-2-oxo-4-trifluoromethyl-1,2-dihydroquinoline-6-sulfonicacid 2-methylbenzylamide] was < 5.00.
The value for `O=c1cc(C(F)(F)F)c2cc(S(=O)(=O)Nc3ccc(F)cc3F)ccc2[nH]1` [Example 94, 2-Oxo-4-trifluoromethyl-1,2-dihydroquinoline-6-sulfonic acid(2,4-difluorophenyl)amide] was < 5.00; that for `O=c1cc(C(F)(F)F)c2cc(S(=O)(=O)Nc3ccccc3Sc3ccccc3)ccc2[nH]1` [Example 115, 2-Oxo-4-trifluoromethyl-1,2-dihydroquinoline-6-sulfonic acid(2-phenylsulfanylphenyl)amide] was 5.09; that for `COc1ccccc1CCNS(=O)(=O)c1ccc2c(c1)c(C(F)(F)F)cc(=O)n2C` [Example 58, 1-Methyl-2-oxo-4-trifluoromethyl-1,2-dihydroquinoline-6-sulfonicacid [2-(2-methoxyphenyl)ethyl]amide] was 5.27.
The value for `COc1ccccc1CCNS(=O)(=O)c1ccc2[nH]c(=O)cc(C(F)(F)F)c2c1` [Example 135, 2-Oxo-4-trifluoromethyl-1,2-dihydroquinoline-6-sulfonic acid[2-(2-methoxyphenyl)ethyl]amide] was 6.77.
The compound `Cc1ccc(NS(=O)(=O)c2ccc3c(c2)c(C(F)(F)F)cc(=O)n3C)cc1` [Example 14, 1-Methyl-2-oxo-4-trifluoromethyl-1,2-dihydroquinoline-6-sulfonicacid p-tolylamide] showed a pIC50 of 5.99.
The value for `O=c1cc(C(F)(F)F)c2cc(S(=O)(=O)NCc3cc(Cl)ccc3F)ccc2[nH]1` [Example 146, 2-Oxo-4-trifluoromethyl-1,2-dihydroquinoline-6-sulfonic acid5-chloro-2-fluorobenzylamide] was 5.18; that for `Cc1ccc(CNS(=O)(=O)c2ccc3[nH]c(=O)cc(C(F)(F)F)c3c2)c(F)c1F` [Example 145, 2-Oxo-4-trifluoromethyl-1,2-dihydroquinoline-6-sulfonic acid2,3-difluoro-4-methylbenzylamide] was < 5.00; that for `Cc1ccc(CNS(=O)(=O)c2ccc3c(c2)c(C(F)(F)F)cc(=O)n3C)cc1` [Example 51, 1-Methyl-2-oxo-4-trifluoromethyl-1,2-dihydroquinoline-6-sulfonicacid 4-methylbenzylamide] was < 5.00.
Next, `CCCCN(CCO)S(=O)(=O)c1ccc2c(c1)c(C(F)(F)F)cc(=O)n2C` [Example 5, 1-Methyl-2-oxo-4-trifluoromethyl-1,2-dihydroquinoline-6-sulfonicacid butyl(2-hydroxyethyl)-amide]: < 5.00.
The value for `Cc1cccc(NS(=O)(=O)c2ccc3[nH]c(=O)cc(C(F)(F)F)c3c2)c1` [Example 82, 2-Oxo-4-trifluoromethyl-1,2-dihydroquinoline-6-sulfonic acidm-tolylamide] was 6.08.
`CCOc1ccccc1CNS(=O)(=O)c1ccc2[nH]c(=O)cc(C(F)(F)F)c2c1` [Example 136, 2-Oxo-4-trifluoromethyl-1,2-dihydroquinoline-6-sulfonic acid2-ethoxybenzylamide] showed a pIC50 of 6.24.
`COc1cc(NS(=O)(=O)c2ccc3[nH]c(=O)cc(C(F)(F)F)c3c2)cc(OC)c1` [Example 103, 2-Oxo-4-trifluoromethyl-1,2-dihydroquinoline-6-sulfonic acid(3,5-dimethoxyphenyl)amide] showed a negative-log IC50 (pIC50) of 6.70.
The value for `Cn1c(=O)cc(C(F)(F)F)c2cc(S(=O)(=O)Nc3cccc4c3CCC4)ccc21` [Example 23, 1-Methyl-2-oxo-4-trifluoromethyl-1,2-dihydroquinoline-6-sulfonicacid indan-4-ylamide] was < 5.00.
Next, `CC(C)OCCCNS(=O)(=O)c1ccc2[nH]c(=O)cc(C(F)(F)F)c2c1` [Example 127, 2-Oxo-4-trifluoromethyl-1,2-dihydroquinoline-6-sulfonic acid(3-isopropoxypropyl)amide]: 5.80; `O=c1cc(C(F)(F)F)c2cc(S(=O)(=O)NCc3ccccc3OC(F)F)ccc2[nH]1` [Example 151, 2-Oxo-4-trifluoromethyl-1,2-dihydroquinoline-6-sulfonic acid2-difluoromethoxybenzylamide]: 6.14; `O=c1cc(C(F)(F)F)c2cc(S(=O)(=O)Nc3cccnc3)ccc2[nH]1` [Example 81, 2-Oxo-4-trifluoromethyl-1,2-dihydroquinoline-6-sulfonic acidpyridin-3-ylamide]: < 5.00.
The value for `CCCCN(C)S(=O)(=O)c1ccc2[nH]c(=O)cc(C(F)(F)F)c2c1` [Example 76, 2-Oxo-4-trifluoromethyl-1,2-dihydroquinoline-6-sulfonic acidbutylmethylamide] was 6.68; that for `COc1cccc(NS(=O)(=O)c2ccc3c(c2)c(C(F)(F)F)cc(=O)n3C)c1` [Example 48, 1-Methyl-2-oxo-4-trifluoromethyl-1,2-dihydroquinoline-6-sulfonicacid (3-methoxyphenyl)amide] was 5.95; that for `Cn1c(=O)cc(C(F)(F)F)c2cc(S(=O)(=O)N(Cc3ccccc3)Cc3ccccc3)ccc21` [Example 9, 1-Methyl-2-oxo-4-trifluoromethyl-1,2-dihydroquinoline-6-sulfonicacid dibenzylamide] was < 5.00.
On to `Cc1ccc(-c2ccccc2)cc1NS(=O)(=O)c1ccc2[nH]c(=O)cc(C(F)(F)F)c2c1` [Example 99, 2-Oxo-4-trifluoromethyl-1,2-dihydroquinoline-6-sulfonic acid(4-methylbiphenyl-3-yl)amide], for which the pIC50 was < 5.00.
The value for `CN(c1ccccc1)S(=O)(=O)c1ccc2c(c1)c(C(F)(F)F)cc(=O)n2C` [Example 12, 1-Methyl-2-oxo-4-trifluoromethyl-1,2-dihydroquinoline-6-sulfonicacid methylphenylamide] was < 5.00; that for `O=c1cc(C(F)(F)F)c2cc(S(=O)(=O)Nc3ccccc3Br)ccc2[nH]1` [Example 110, 2-Oxo-4-trifluoromethyl-1,2-dihydroquinoline-6-sulfonic acid(2-bromophenyl)amide] was < 5.00; that for `CCN(Cc1ccccc1)S(=O)(=O)c1ccc2[nH]c(=O)cc(C(F)(F)F)c2c1` [Example 79, 2-Oxo-4-trifluoromethyl-1,2-dihydroquinoline-6-suifonic acidbenzylethylamide] was 6.41.
Next, `Cn1c(=O)cc(C(F)(F)F)c2cc(S(=O)(=O)Nc3cccc(Cc4ccccc4)c3)ccc21` [Example 43, 1-Methyl-2-oxo-4-trifluoromethyl-1,2-dihydroquinoline-6-sulfonicacid (3-benzylphenyl)amide]: < 5.00.
Take `O=c1cc(C(F)(F)F)c2cc(S(=O)(=O)NCc3ccc(F)cc3Cl)ccc2[nH]1` [Example 140, 2-Oxo-4-trifluoromethyl-1,2-dihydroquinoline-6-sulfonic acid2-chloro-4-fluorobenzylamide]: the pIC50 is 5.25.
